Test results taken from the supplement of paper PMC11061612.

What was measured:
Carboplatin = compound: C1CC(C1)(C(=O)[O-])C(=O)[O-].N.N.[Pt+2] [Carboplatin]; conditions: max 10 µM
Summary of the method: (§1)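 Cancer cell lines were dosed for 72 hours (final DMSO typically 0.2%) after 24 hours at 37°C and 5% CO2 in 1536-well plates containing 7.5 μl DMEM/F12 or RPMI with 10% FBS. Viability came from CellTiter-Glo 2.0 luminescence, scaled between blank-well and DMSO-well means, and dose responses were fitted to a two-parameter logistic curve with a non-linear mixed effects model. The single-agent IC50 was obtained from this fit.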

AZD5363 = compound: C1CN(CCC1(C(=O)N[C@@H](CCO)C2=CC=C(C=C2)Cl)N)C3=NC=NC4=C3C=CN4 [AZD5363]; conditions: max 10 µM
Summary of the method: as §1

AZD1775 = compound: C=CCn1c(=O)c2cnc(Nc3ccc(N4CCN(C)CC4)cc3)nc2n1-c1cccc(C(C)(C)O)n1 [AZD1775]; conditions: max 3 µM
Summary of the method: as §1

Trametinib = compound: CC(=O)Nc1cccc(-n2c(=O)n(C3CC3)c(=O)c3c(Nc4ccc(I)cc4F)n(C)c(=O)c(C)c32)c1 [Trametinib]; conditions: max 1 µM
Summary of the method: as §1

Paclitaxel = compound: CC(=O)O[C@H]1C(=O)[C@@]2(C)[C@H]([C@H](OC(=O)c3ccccc3)[C@]3(O)C[C@H](OC(=O)[C@H](O)[C@@H](NC(=O)c4ccccc4)c4ccccc4)C(C)=C1C3(C)C)[C@]1(OC(C)=O)CO[C@@H]1C[C@@H]2O [Paclitaxel]; conditions: max 3 µM
Summary of the method: as §1

Palbociclib = compound: CC(=O)c1c(C)c2cnc(Nc3ccc(N4CCNCC4)cn3)nc2n(C2CCCC2)c1=O [Palbociclib]; conditions: max 10 µM
Summary of the method: as §1

AZD1390 = compound: CC(C)n1c(=O)n(C)c2cnc3cc(F)c(-c4ccc(OCCCN5CCCCC5)nc4)cc3c21 [AZD1390]; conditions: max 0.3 µM
Summary of the method: as §1

Venetoclax = compound: CC1(C)CCC(CN2CCN(c3ccc(C(=O)NS(=O)(=O)c4ccc(NCC5CCOCC5)c([N+](=O)[O-])c4)c(Oc4cnc5[nH]ccc5c4)c3)CC2)=C(c2ccc(Cl)cc2)C1 [Venetoclax]; conditions: max 1 µM
Summary of the method: as §1

Dasatinib = compound: CC1=C(C(=CC=C1)Cl)NC(=O)C2=CN=C(S2)NC3=CC(=NC(=N3)C)N4CCN(CC4)CCO [Dasatinib]; conditions: max 2 µM
Summary of the method: as §1

SG3199 = compound: CC1=CN2[C@@H](C1)C=NC3=CC(=C(C=C3C2=O)OC)OCCCCCOC4=C(C=C5C(=C4)N=C[C@@H]6CC(=CN6C5=O)C)OC [SG3199]; conditions: max 0.001 µM
Summary of the method: as §1

AZD2811 = compound: CCN(CCO)CCCOc1ccc2c(Nc3cc(CC(=O)Nc4cccc(F)c4)[nH]n3)ncnc2c1 [AZD2811]; conditions: max 1 µM
Summary of the method: as §1

SN-38 = compound: CCc1c2c(nc3ccc(O)cc13)-c1cc3c(c(=O)n1C2)COC(=O)[C@]3(O)CC [SN-38]; conditions: max 0.3 µM
Summary of the method: as §1

AZD0156 = compound: CN(C)CCCOc1ccc(-c2ccc3ncc4c(c3c2)n(C2CCOCC2)c(=O)n4C)cn1 [AZD0156]; conditions: max 3 µM
Summary of the method: as §1

AZD4320 = compound: CN(CC[C@H](CSC1=CC=CC=C1)NC2=C(C=C(C=C2)S(=O)(=O)NC(=O)C3=CC=C(C=C3)N4CCC(CC4)[C@H](C5=CC=CC=C5C6=CC=C(C=C6)Cl)O)S(=O)(=O)C(F)(F)F)CCO [AZD4320]; conditions: max 1 µM
Summary of the method: as §1

Alisertib = compound: COc1cc(Nc2ncc3c(n2)-c2ccc(Cl)cc2C(c2c(F)cccc2OC)=NC3)ccc1C(=O)O [Alisertib]; conditions: max 10 µM
Summary of the method: as §1

Etoposide = compound: COc1cc([C@@H]2c3cc4c(cc3[C@@H](O[C@@H]3O[C@@H]5CO[C@@H](C)O[C@H]5[C@H](O)[C@H]3O)[C@H]3COC(=O)[C@H]23)OCO4)cc(OC)c1O [Etoposide]; conditions: max 10 µM
Summary of the method: as §1

Gefitinib = compound: COc1cc2ncnc(Nc3ccc(F)c(Cl)c3)c2cc1OCCCN1CCOCC1 [Gefitinib]; conditions: max 10 µM
Summary of the method: as §1

Prexasertib = compound: COc1cccc(OCCCN)c1-c1cc(Nc2cnc(C#N)cn2)n[nH]1 [Prexasertib]; conditions: max 1 µM
Summary of the method: as §1

Doxorubicin = compound: COc1cccc2c1C(=O)c1c(O)c3c(c(O)c1C2=O)C[C@@](O)(C(=O)CO)C[C@@H]3O[C@H]1C[C@H](N)[C@H](O)[C@H](C)O1 [Doxorubicin]; conditions: max 1 µM
Summary of the method: as §1

AZD5153 = compound: COc1nnc2ccc(N3CCC(c4ccc(OCCN5CCN(C)C(=O)[C@H]5C)cc4)CC3)nn12 [AZD5153]; conditions: max 1 µM
Summary of the method: as §1

Lapatinib = compound: CS(=O)(=O)CCNCc1ccc(-c2ccc3ncnc(Nc4ccc(OCc5cccc(F)c5)c(Cl)c4)c3c2)o1 [Lapatinib]; conditions: max 10 µM
Summary of the method: as §1

AZD8186 = compound: C[C@@H](Nc1cc(F)cc(F)c1)c1cc(C(=O)N(C)C)cc2c(=O)cc(N3CCOCC3)oc12 [AZD8186]; conditions: max 10 µM
Summary of the method: as §1

Crizotinib = compound: C[C@@H](Oc1cc(-c2cnn(C3CCNCC3)c2)cnc1N)c1c(Cl)ccc(F)c1Cl [Crizotinib]; conditions: max 10 µM
Summary of the method: as §1

Savolitinib = compound: C[C@@H](c1ccc2nccn2c1)n1nnc2ncc(-c3cnn(C)c3)nc21 [Savolitinib]; conditions: max 1 µM
Summary of the method: as §1

AZD6738 = compound: C[C@@H]1COCCN1C2=NC(=NC(=C2)C3(CC3)[S@](=N)(=O)C)C4=C5C=CNC5=NC=C4 [AZD6738]; conditions: max 10 µM
Summary of the method: as §1

AZD5991 = compound: Cc1c2c(nn1C)CSCc1cc(n(C)n1)CSc1cc(c3ccccc3c1)OCCCc1c(C(=O)O)n(C)c3c-2c(Cl)ccc13 [AZD5991]; conditions: max 1 µM
Summary of the method: as §1

AZD7648 = compound: Cc1cc2ncnn2cc1Nc1ncc2c(n1)n(C1CCOCC1)c(=O)n2C [AZD7648]; conditions: max 10 µM
Summary of the method: as §1

Taselisib = compound: Cc1nc(-c2cn3c(n2)-c2ccc(-c4cnn(C(C)(C)C(N)=O)c4)cc2OCC3)n(C(C)C)n1 [Taselisib]; conditions: max 10 µM
Summary of the method: as §1

Selumetinib = compound: Cn1cnc2c(F)c(Nc3ccc(Br)cc3Cl)c(C(=O)NOCCO)cc21 [Selumetinib]; conditions: max 10 µM
Summary of the method: as §1

SRA737 = compound: N#Cc1cnc(Nc2cc(NC[C@H]3CNCCO3)c(C(F)(F)F)cn2)cn1 [SRA737]; conditions: max 10 µM
Summary of the method: as §1

MK-2206 = compound: NC1(c2ccc(-c3nc4ccn5c(=O)[nH]nc5c4cc3-c3ccccc3)cc2)CCC1 [MK-2206]; conditions: max 10 µM
Summary of the method: as §1

Gemcitabine = compound: Nc1ccn([C@@H]2O[C@H](CO)[C@@H](O)C2(F)F)c(=O)n1 [Gemcitabine]; conditions: max 0.3 µM
Summary of the method: as §1

[1] = compound: O=C(Nc1ccc2[nH]nc(-c3ccncc3)c2c1)[C@@H]1CCN(CC(=O)N2CCN(c3ccc(-c4ncccn4)cc3)CC2)C1; conditions: max 5 µM
Summary of the method: as §1

Olaparib = compound: O=C(c1cc(Cc2n[nH]c(=O)c3ccccc23)ccc1F)N1CCN(C(=O)C2CC2)CC1 [Olaparib]; conditions: max 10 µM
Summary of the method: as §1

5-Fluorouracil = compound: O=c1[nH]cc(F)c(=O)[nH]1 [5-Fluorouracil]; conditions: max 20 µM
Summary of the method: as §1

Cell Line	IC50, cell viability 72 h (Carboplatin)	IC50, cell viability 72 h (AZD5363)	IC50, cell viability 72 h (AZD1775)	IC50, cell viability 72 h (Trametinib)	IC50, cell viability 72 h (Paclitaxel)	IC50, cell viability 72 h (Palbociclib)	IC50, cell viability 72 h (AZD1390)	IC50, cell viability 72 h (Venetoclax)	IC50, cell viability 72 h (Dasatinib)	IC50, cell viability 72 h (SG3199)	IC50, cell viability 72 h (AZD2811)	IC50, cell viability 72 h (SN-38)	IC50, cell viability 72 h (AZD0156)	IC50, cell viability 72 h (AZD4320)	IC50, cell viability 72 h (Alisertib)	IC50, cell viability 72 h (Etoposide)	IC50, cell viability 72 h (Gefitinib)	IC50, cell viability 72 h (Prexasertib)	IC50, cell viability 72 h (Doxorubicin)	IC50, cell viability 72 h (AZD5153)	IC50, cell viability 72 h (Lapatinib)	IC50, cell viability 72 h (AZD8186)	IC50, cell viability 72 h (Crizotinib)	IC50, cell viability 72 h (Savolitinib)	IC50, cell viability 72 h (AZD6738)	IC50, cell viability 72 h (AZD5991)	IC50, cell viability 72 h (AZD7648)	IC50, cell viability 72 h (Taselisib)	IC50, cell viability 72 h (Selumetinib)	IC50, cell viability 72 h (SRA737)	IC50, cell viability 72 h (MK-2206)	IC50, cell viability 72 h (Gemcitabine)	IC50, cell viability 72 h [1]	IC50, cell viability 72 h (Olaparib)	IC50, cell viability 72 h (5-Fluorouracil)
NCI-H2818 (Mesothelioma)	> 10 µM	> 10 µM	> 3 µM	> 1 µM	0.745 µM	> 10 µM	> 0.3 µM	> 1 µM	> 2 µM	> 0.001 µM	> 1 µM	> 0.3 µM	> 3 µM	> 1 µM	> 10 µM	> 10 µM	> 10 µM	> 1 µM	> 1 µM	> 1 µM	> 10 µM	> 10 µM	> 10 µM	> 1 µM	> 10 µM	> 1 µM	> 10 µM	> 10 µM	> 10 µM	> 10 µM	> 10 µM	> 0.3 µM	> 5 µM	> 10 µM	> 20 µM
WM-115 (Melanoma)	> 10 µM	> 10 µM	> 3 µM	0.182 µM	0.387 µM	> 10 µM	> 0.3 µM	> 1 µM	> 2 µM	> 0.001 µM	> 1 µM	> 0.3 µM	> 3 µM	> 1 µM	> 10 µM	> 10 µM	> 10 µM	0.486 µM	0.633 µM	> 1 µM	> 10 µM	3.41 µM	> 10 µM	> 1 µM	> 10 µM	> 1 µM	> 10 µM	7.27 µM	> 10 µM	> 10 µM	> 10 µM	> 0.3 µM	> 5 µM	> 10 µM	> 20 µM
K-562 (Chronic Myelogenous Leukemia)	> 10 µM	> 10 µM	0.624 µM	> 1 µM	0.0341 µM	> 10 µM	> 0.3 µM	> 1 µM	0.0223 µM	> 0.001 µM	> 1 µM	0.112 µM	> 3 µM	> 1 µM	4.68 µM	> 10 µM	> 10 µM	0.0195 µM	> 1 µM	> 1 µM	> 10 µM	> 10 µM	2.11 µM	> 1 µM	4.14 µM	> 1 µM	> 10 µM	> 10 µM	> 10 µM	4.12 µM	> 10 µM	> 0.3 µM	> 5 µM	> 10 µM	> 20 µM
SR (Other Blood Carcinomas)	> 10 µM	> 10 µM	0.187 µM	> 1 µM	0.00575 µM	3 µM	> 0.3 µM	0.722 µM	> 2 µM	> 0.001 µM	0.0435 µM	0.0033 µM	> 3 µM	0.677 µM	0.0503 µM	0.126 µM	> 10 µM	0.00588 µM	0.0261 µM	0.0864 µM	> 10 µM	> 10 µM	0.251 µM	> 1 µM	1.75 µM	0.352 µM	> 10 µM	> 10 µM	> 10 µM	1.4 µM	> 10 µM	0.0453 µM	> 5 µM	> 10 µM	4.32 µM
NCI-H1792 (Lung Adenocarcinoma)	> 10 µM	> 10 µM	0.73 µM	0.0835 µM	0.00592 µM	> 10 µM	> 0.3 µM	> 1 µM	1.55 µM	> 0.001 µM	> 1 µM	0.159 µM	> 3 µM	> 1 µM	5.11 µM	7.11 µM	> 10 µM	0.0979 µM	0.558 µM	0.561 µM	> 10 µM	> 10 µM	6.07 µM	> 1 µM	4.81 µM	> 1 µM	> 10 µM	4.88 µM	> 10 µM	> 10 µM	> 10 µM	0.0345 µM	> 5 µM	> 10 µM	7.72 µM
